In article PMC11397024, “Strategic Fluorination to Achieve a Potent, Selective, Metabolically Stable, and Orally Bioavailable Inhibitor of CSNK2” (Molecules, 2024):

Key:
Assay in all cases: NanoBRET K192
Type in all cases: cell-based
Conditions in all cases: HEK293
SNF1LK2 = target: T1, SNF1LK2 (Homo sapiens, UniProt Q9H0K1)
T1 construct: host or cells: HEK293
Description: (§1) The K192 selectivity assay was run according to the Draft Promega technical manual, NanoBRET^TM Target Engagement K192 Kinase Selectivity System. Reagents were supplied by Promega (Promega NP 4101). For the assay, DNA from the prepared kinase vector panel plates A and B were mixed with Fugene in 96-well plates (Corning 3917) and incubated at room temperature for 30 min. The NanoLuc® Low control vector pNL1.1.CMV [Nluc/CMV] Vector (Cat.# N1091) and the transfection control vector NanoLuc®-HIPK2 Fusion Vector (Cat.# NV3221) were used as controls.
(§2) HEK293 cells were grown to 75–95% confluency in DMEM (Gibco 11995-065) supplemented with FBS (Avantor 97068-085) at 37 °C in […]. On the first day of the assay, cells were harvested and resuspended in Opti-MEM (Gibco 11058-021) supplemented with 1% FBS (Avantor 97068-085) at 2.5 × 10^5 cells per mL. A volume of 60 μL of cell suspension was mixed with 10 μL of prepared DNA (10X concentration) and 30 μL of Fugene (30 μL/mL in Opti-MEM) as outlined by Promega and incubated overnight at 37 °C in a 5% CO2 incubator.
(§3) On day two of the assay, 5 μL of 20X K10 tracer was prepared and added at concentrations recommended by Promega. Then, 10 μL of test compounds at 100 μM in Opti-MEM (diluted from a 10 mM solution in DMSO) was added to the test wells while an equivalent volume of Opti-MEM was added to the high-control wells. Plates were kept at 37 °C in a 5% CO2 incubator for two hours. After two hours, plates were allowed to equilibrate to room temperature for 15 min. A solution of 3X Complete Substrate plus Inhibitor Solution was freshly prepared, consisting of a 1:166 dilution of NanoBRET™ Nano-Glo® Substrate plus a 1:500 dilution of Extracellular NanoLuc® Inhibitor in Opti-MEM® medium without serum or phenol red. A 50 μL volume of the 3X Complete Substrate plus Inhibitor Solution was added to each assay well, including control wells. After 2–3 min, the plate was shaken at 300 RPM for 10 s, and the donor emission wavelength (450 nm) and acceptor emission wavelength (610 nm) were measured using the Glomax® Discover System.
(§4) As a quality check, the donor signal-to-background ratio was calculated for each individual kinase by dividing the mean donor signal for each kinase by the mean donor signal for the signal-to-background control wells. Fractional occupancy of the test drug for each kinase was determined using the following formula:Occupancy (%) = [1 − (Sample − Bottom)/(Top − Bottom)] × 100 where

RIPK2 = target: T2, RIPK2 (Homo sapiens, UniProt O43353)
T2 construct: purchased Promega (NanoBRET Target Engagement K192 Kinase Selectivity System)
Description: as §1, §2, §3, §4

MAP3K21 = target: T3, MAP3K21 (Homo sapiens, UniProt Q5TCX8)
T3 construct: purchased Promega (NanoBRET Target Engagement K192 Kinase Selectivity System)
Description: as §1, §2, §3, §4

IRAK3 = target: T4, IRAK3 (Homo sapiens, UniProt Q9Y616)
T4 construct: purchased Promega (NanoBRET Target Engagement K192 Kinase Selectivity System)
Description: as §1, §2, §3, §4

MERTK = target: T5, MERTK (Homo sapiens, UniProt Q12866)
T5 construct: purchased Promega (NanoBRET Target Engagement K192 Kinase Selectivity System)
Description: as §1, §2, §3, §4

CDKL1 = target: T6, CDKL1 (Homo sapiens, UniProt Q00532)
T6 construct: purchased Promega (NanoBRET Target Engagement K192 Kinase Selectivity System)
Description: as §1, §2, §3, §4

PTK2 = target: T7, PTK2 (Homo sapiens, UniProt Q05397)
T7 construct: purchased Promega (NanoBRET Target Engagement K192 Kinase Selectivity System)
Description: as §1, §2, §3, §4

STK11 = target: T8, STK11 (Homo sapiens, UniProt Q15831)
T8 construct: purchased Promega (NanoBRET Target Engagement K192 Kinase Selectivity System)
Description: as §1, §2, §3, §4

CDKL3 = target: T9, CDKL3 (Homo sapiens, UniProt Q8IVW4)
T9 construct: purchased Promega (NanoBRET Target Engagement K192 Kinase Selectivity System)
Description: as §1, §2, §3, §4

GAK = target: T10, GAK (Homo sapiens, UniProt O14976)
T10 construct: purchased Promega (NanoBRET Target Engagement K192 Kinase Selectivity System)
Description: as §1, §2, §3, §4

MAST4 = target: T11, MAST4 (Homo sapiens, UniProt O15021)
T11 construct: purchased Promega (NanoBRET Target Engagement K192 Kinase Selectivity System)
Description: as §1, §2, §3, §4

FER = target: T12, FER (Homo sapiens, UniProt P16591)
T12 construct: purchased Promega (NanoBRET Target Engagement K192 Kinase Selectivity System)
Description: as §1, §2, §3, §4

NTRK2 = target: T13, NTRK2 (Homo sapiens, UniProt Q16620)
T13 construct: purchased Promega (NanoBRET Target Engagement K192 Kinase Selectivity System)
Description: as §1, §2, §3, §4

MAP4K1 = target: T14, MAP4K1 (Homo sapiens, UniProt Q92918)
T14 construct: purchased Promega (NanoBRET Target Engagement K192 Kinase Selectivity System)
Description: as §1, §2, §3, §4

AXL = target: T15, AXL (Homo sapiens, UniProt P30530)
T15 construct: host or cells: HEK293
Description: as §1, §2, §3, §4

MAPK4 = target: T16, MAPK4 (Homo sapiens, UniProt P31152)
T16 construct: purchased Promega (NanoBRET Target Engagement K192 Kinase Selectivity System)
Description: as §1, §2, §3, §4

AURK A = target: T17, AURK A (Homo sapiens, UniProt O14965)
T17 construct: host or cells: HEK293
Description: as §1, §2, §3, §4

CDK7 + pMB = target: T18, CDK7 + pMB (Homo sapiens, UniProt P50613)
T18 construct: purchased Promega (NanoBRET Target Engagement K192 Kinase Selectivity System)
Description: as §1, §2, §3, §4

PRKACA = target: T19, PRKACA (Homo sapiens, UniProt P17612)
T19 construct: purchased Promega (NanoBRET Target Engagement K192 Kinase Selectivity System)
Description: as §1, §2, §3, §4

NIM1K = target: T20, NIM1K (Homo sapiens, UniProt Q8IY84)
T20 construct: host or cells: HEK293
Description: as §1, §2, §3, §4

CSNK1D = target: T21, CSNK1D (Homo sapiens, UniProt P48730)
T21 construct: purchased Promega (NanoBRET Target Engagement K192 Kinase Selectivity System)
Description: as §1, §2, §3, §4

DCLK3 = target: T22, DCLK3 (Homo sapiens, UniProt Q9C098)
T22 construct: purchased Promega (NanoBRET Target Engagement K192 Kinase Selectivity System)
Description: as §1, §2, §3, §4

STK32B = target: T23, STK32B (Homo sapiens, UniProt Q9NY57)
T23 construct: purchased Promega (NanoBRET Target Engagement K192 Kinase Selectivity System)
Description: as §1, §2, §3, §4

CDK20 + H = target: T24, CDK20 + H (Homo sapiens, UniProt Q8IZL9)
T24 construct: purchased Promega (NanoBRET Target Engagement K192 Kinase Selectivity System)
Description: as §1, §2, §3, §4

MET = target: T25, MET (Homo sapiens, UniProt P08581)
T25 construct: purchased Promega (NanoBRET Target Engagement K192 Kinase Selectivity System)
Description: as §1, §2, §3, §4

CDK4 + D3 = target: T26, CDK4 + D3 (Homo sapiens, UniProt P11802)
T26 construct: purchased Promega (NanoBRET Target Engagement K192 Kinase Selectivity System)
Description: as §1, §2, §3, §4

ULK2 = target: T27, ULK2 (Homo sapiens, UniProt Q8IYT8)
T27 construct: purchased Promega (NanoBRET Target Engagement K192 Kinase Selectivity System)
Description: as §1, §2, §3, §4

EPHB4 = target: T28, EPHB4 (Homo sapiens, UniProt P54760)
T28 construct: purchased Promega (NanoBRET Target Engagement K192 Kinase Selectivity System)
Description: as §1, §2, §3, §4

T4 sequence (Q9Y616 whole entry): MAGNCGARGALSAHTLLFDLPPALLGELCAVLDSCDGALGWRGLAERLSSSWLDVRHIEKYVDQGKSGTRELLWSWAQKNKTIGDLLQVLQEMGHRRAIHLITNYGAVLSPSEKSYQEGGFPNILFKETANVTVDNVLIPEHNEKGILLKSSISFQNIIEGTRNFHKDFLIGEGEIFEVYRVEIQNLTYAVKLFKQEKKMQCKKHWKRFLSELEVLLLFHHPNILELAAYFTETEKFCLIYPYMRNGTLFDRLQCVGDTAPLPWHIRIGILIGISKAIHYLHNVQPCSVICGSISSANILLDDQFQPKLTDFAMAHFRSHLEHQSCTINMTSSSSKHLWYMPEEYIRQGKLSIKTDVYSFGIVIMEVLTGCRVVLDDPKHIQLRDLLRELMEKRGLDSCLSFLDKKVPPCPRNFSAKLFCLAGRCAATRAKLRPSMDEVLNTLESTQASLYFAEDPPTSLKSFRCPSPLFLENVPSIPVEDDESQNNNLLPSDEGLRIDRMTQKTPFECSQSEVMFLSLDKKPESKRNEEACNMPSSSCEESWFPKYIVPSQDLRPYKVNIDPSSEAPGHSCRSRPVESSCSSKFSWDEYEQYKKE
T6 sequence (Q00532 whole entry): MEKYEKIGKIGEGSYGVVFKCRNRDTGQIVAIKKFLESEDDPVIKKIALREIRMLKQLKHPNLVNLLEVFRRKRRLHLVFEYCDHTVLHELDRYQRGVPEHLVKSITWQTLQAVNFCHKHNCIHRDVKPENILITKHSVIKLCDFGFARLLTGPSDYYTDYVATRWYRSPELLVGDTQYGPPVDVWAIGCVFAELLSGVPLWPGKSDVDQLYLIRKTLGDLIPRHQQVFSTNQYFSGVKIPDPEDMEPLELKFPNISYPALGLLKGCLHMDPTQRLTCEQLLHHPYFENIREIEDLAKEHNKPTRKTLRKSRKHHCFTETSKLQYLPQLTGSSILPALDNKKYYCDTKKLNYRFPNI
T23 sequence (Q9NY57 whole entry): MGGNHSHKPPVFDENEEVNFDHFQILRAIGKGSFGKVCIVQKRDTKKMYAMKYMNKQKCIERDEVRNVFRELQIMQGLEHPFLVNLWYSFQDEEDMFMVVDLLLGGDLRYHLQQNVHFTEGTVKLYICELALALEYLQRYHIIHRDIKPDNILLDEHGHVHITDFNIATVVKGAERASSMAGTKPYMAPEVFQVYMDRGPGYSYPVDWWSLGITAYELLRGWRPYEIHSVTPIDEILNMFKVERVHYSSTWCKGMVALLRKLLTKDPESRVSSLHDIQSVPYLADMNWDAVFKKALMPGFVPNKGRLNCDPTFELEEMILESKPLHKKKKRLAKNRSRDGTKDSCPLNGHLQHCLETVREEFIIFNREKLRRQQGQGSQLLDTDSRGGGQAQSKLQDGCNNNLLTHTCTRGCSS
T16 sequence (P31152 whole entry): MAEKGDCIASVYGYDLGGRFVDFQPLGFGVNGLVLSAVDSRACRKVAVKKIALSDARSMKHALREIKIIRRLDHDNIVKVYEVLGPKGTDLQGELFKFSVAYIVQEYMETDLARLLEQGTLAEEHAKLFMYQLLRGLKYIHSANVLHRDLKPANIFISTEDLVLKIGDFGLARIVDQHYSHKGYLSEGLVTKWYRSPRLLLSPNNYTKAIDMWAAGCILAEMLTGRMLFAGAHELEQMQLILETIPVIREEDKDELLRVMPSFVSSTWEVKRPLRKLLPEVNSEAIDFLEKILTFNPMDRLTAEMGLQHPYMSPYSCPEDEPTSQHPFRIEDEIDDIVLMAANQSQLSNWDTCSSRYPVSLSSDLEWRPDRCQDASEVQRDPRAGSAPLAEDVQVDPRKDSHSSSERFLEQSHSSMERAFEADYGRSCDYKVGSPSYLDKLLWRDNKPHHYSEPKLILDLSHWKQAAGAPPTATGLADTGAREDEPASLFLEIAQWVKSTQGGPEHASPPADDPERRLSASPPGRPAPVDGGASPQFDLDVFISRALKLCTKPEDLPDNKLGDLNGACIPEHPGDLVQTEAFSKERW
T26 sequence (P11802 whole entry): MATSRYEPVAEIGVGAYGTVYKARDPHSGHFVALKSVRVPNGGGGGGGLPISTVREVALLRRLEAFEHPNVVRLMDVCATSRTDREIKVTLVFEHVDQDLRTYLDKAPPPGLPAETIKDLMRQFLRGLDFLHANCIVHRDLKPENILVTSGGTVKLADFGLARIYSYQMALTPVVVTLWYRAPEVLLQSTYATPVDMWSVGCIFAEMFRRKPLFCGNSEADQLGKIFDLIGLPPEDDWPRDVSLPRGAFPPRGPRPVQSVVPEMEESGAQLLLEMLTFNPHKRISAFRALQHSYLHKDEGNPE
T26 sequence (P30281 whole entry partner): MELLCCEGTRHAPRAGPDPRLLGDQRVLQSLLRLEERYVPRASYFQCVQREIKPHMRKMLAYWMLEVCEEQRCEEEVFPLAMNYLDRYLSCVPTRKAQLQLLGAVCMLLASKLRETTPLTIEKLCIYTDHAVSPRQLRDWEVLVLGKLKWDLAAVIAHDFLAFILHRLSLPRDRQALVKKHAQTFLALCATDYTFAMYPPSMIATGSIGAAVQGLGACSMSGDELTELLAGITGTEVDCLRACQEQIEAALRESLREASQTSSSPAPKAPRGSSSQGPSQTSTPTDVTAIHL
T8 sequence (Q15831 whole entry): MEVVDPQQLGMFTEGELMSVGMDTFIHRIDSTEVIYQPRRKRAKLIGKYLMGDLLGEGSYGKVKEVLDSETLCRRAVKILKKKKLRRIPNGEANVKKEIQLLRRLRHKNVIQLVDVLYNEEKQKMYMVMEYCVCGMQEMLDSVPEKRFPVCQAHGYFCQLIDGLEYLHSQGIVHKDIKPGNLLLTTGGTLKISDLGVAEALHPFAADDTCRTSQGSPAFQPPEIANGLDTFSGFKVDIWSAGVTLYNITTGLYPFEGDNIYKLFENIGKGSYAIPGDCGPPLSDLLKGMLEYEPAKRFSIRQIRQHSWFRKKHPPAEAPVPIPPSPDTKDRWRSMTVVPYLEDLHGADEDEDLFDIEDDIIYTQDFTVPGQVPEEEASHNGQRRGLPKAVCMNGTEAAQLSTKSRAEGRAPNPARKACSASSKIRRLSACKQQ
T27 sequence (Q8IYT8 whole entry): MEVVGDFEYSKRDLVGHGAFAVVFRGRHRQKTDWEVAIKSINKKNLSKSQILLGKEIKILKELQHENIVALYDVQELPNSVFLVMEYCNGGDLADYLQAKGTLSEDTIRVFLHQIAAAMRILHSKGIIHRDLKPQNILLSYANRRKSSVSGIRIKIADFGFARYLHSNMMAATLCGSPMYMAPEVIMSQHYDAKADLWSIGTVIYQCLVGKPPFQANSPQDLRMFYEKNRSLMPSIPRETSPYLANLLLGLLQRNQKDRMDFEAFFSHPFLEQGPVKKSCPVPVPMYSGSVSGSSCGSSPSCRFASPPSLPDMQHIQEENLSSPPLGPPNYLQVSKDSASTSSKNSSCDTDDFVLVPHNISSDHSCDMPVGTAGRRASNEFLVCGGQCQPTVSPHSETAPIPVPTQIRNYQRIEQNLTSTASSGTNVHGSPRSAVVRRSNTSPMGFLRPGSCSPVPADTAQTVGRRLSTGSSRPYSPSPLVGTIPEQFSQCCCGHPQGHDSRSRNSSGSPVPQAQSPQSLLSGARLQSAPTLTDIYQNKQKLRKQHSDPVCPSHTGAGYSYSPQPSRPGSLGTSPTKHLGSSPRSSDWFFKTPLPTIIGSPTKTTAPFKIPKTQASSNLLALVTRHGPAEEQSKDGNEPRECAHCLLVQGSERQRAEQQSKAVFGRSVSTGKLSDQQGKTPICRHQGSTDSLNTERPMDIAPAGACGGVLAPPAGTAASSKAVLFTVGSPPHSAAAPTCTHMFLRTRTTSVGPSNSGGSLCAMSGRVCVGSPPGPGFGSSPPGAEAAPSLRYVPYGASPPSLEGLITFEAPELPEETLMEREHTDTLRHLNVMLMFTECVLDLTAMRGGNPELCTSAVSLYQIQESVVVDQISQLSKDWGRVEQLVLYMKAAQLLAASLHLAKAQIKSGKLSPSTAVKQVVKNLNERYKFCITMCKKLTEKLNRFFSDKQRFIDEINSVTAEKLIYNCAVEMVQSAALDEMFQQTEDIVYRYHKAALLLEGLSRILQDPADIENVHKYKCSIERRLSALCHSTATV
T21 sequence (P48730 whole entry): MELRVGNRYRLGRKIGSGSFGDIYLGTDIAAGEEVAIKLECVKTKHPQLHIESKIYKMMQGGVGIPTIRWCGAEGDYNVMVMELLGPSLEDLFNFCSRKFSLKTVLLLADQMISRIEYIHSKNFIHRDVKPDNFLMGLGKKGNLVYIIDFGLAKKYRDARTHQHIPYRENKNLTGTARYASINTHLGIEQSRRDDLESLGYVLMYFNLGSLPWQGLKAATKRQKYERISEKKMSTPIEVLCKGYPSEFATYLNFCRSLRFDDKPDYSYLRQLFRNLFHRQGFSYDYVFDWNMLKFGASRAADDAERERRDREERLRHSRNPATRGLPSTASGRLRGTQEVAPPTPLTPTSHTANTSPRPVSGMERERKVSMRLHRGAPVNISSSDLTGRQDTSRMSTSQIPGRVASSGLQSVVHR
T17 sequence (O14965 whole entry): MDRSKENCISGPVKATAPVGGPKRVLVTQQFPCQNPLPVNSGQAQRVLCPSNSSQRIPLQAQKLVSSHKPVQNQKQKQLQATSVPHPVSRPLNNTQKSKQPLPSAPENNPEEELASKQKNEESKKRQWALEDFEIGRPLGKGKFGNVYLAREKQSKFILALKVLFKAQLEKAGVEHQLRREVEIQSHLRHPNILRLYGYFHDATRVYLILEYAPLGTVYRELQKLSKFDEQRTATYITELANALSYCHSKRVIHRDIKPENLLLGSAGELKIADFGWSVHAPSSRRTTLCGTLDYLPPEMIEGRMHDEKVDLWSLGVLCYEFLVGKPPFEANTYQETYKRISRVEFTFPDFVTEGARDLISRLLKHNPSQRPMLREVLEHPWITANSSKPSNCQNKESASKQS

**Q.** Which receptor occupancy at 10 µM (SNF1LK2) does the source give for `CCC(=O)Nc1cc(Nc2cc(NC3CC3)n3ncc(C#N)c3n2)c(F)cc1N1CCC[C@H](NC)C1` [Compound 2, (S)-N-(5-((3-cyano-7-(cyclopropylamino)pyrazolo[1,5-a]pyrimidin-5-yl)amino)-4-fluoro-2-(3-(methylamino)piperidin-1-yl)phenyl)propionamide] here?
**A.** -4.8%

**Q.** And the receptor occupancy at 10 µM (RIPK2)?
**A.** 9.3%

**Q.** What about the receptor occupancy at 10 µM (MAP3K21) of the same molecule?
**A.** 4.8%

**Q.** What about the receptor occupancy at 10 µM (IRAK3) of the same molecule?
**A.** 2.4%

**Q.** And the receptor occupancy at 10 µM (MERTK)?
**A.** 4.2%

**Q.** And the receptor occupancy at 10 µM (CDKL1)?
**A.** 1.5%

**Q.** And the receptor occupancy at 10 µM (PTK2)?
**A.** 15.7%

**Q.** What about the receptor occupancy at 10 µM (STK11) of the same molecule?
**A.** 0.1%

**Q.** What about the receptor occupancy at 10 µM (CDKL3) of the same molecule?
**A.** 19.4%

**Q.** What about the receptor occupancy at 10 µM (GAK) of the same molecule?
**A.** 3.3%

**Q.** And the receptor occupancy at 10 µM (MAST4)?
**A.** 11.4%

**Q.** And the receptor occupancy at 10 µM (FER)?
**A.** 3.1%

**Q.** And the receptor occupancy at 10 µM (NTRK2)?
**A.** -0.1%

**Q.** What about the receptor occupancy at 10 µM (MAP4K1) of the same molecule?
**A.** 5.1%

**Q.** What about the receptor occupancy at 10 µM (AXL) of the same molecule?
**A.** -9.2%

**Q.** What about the receptor occupancy at 10 µM (MAPK4) of the same molecule?
**A.** 0.9%

**Q.** And the receptor occupancy at 10 µM (AURK A)?
**A.** -9.3%

**Q.** And the receptor occupancy at 10 µM (CDK7 + pMB)?
**A.** 43.9%

**Q.** What about the receptor occupancy at 10 µM (PRKACA) of the same molecule?
**A.** 11.7%

**Q.** And the receptor occupancy at 10 µM (NIM1K)?
**A.** -23.7%

**Q.** What about the receptor occupancy at 10 µM (CSNK1D) of the same molecule?
**A.** 9.4%

**Q.** And the receptor occupancy at 10 µM (DCLK3)?
**A.** 44.7%

**Q.** And the receptor occupancy at 10 µM (STK32B)?
**A.** 5.9%

**Q.** What about the receptor occupancy at 10 µM (CDK20 + H) of the same molecule?
**A.** 23.4%

**Q.** What about the receptor occupancy at 10 µM (MET) of the same molecule?
**A.** 12.3%

**Q.** What about the receptor occupancy at 10 µM (CDK4 + D3) of the same molecule?
**A.** 8.5%

**Q.** And the receptor occupancy at 10 µM (ULK2)?
**A.** 15.5%

**Q.** And the receptor occupancy at 10 µM (EPHB4)?
**A.** 4.4%
